Experiment [1] relates to GPR83 and GPR83del with Gα16 (HEK293). As to the kind of experiment: Intracellular calcium mobilization, Gα16-transfected HEK293 cells. Particulars: 10 µM PEN, 100 µM carbachol, 100 µM ATP, Fluo4-AM fluorescence, duplicate, repeated at least two times. It counts as cell-based, human. The method, then: (§1) As activation of many GPCRs is coupled to calcium mobilization from intracellular stores, GPR83 was probed for ligand-dependent calcium release. Wild-type HEK293 cells and HEK293 clones overexpressing either full-length GPR83 or the N-terminal deletion variant GPR83del were exposed to buffer or one of two independent synthesis batches (PEN #1 and PEN #2) of the neuropeptide PEN, while calcium indicator fluorescence was recorded. […] Calcium release was also tested in a second cell line, osteosarcoma U2OS cells, using various stably expressing clones. […] Therefore, HEK293 cells transfected with Gα16 were employed to investigate a potential GPR83-dependent calcium mobilization with PEN. […] A number of GPCRs show ligand-independent basal calcium activity. However, in an experiment comparing basal calcium levels in wild-type HEK293 cells and in HEK293 clones overexpressing four different variants of GPR83, they were not found to be different (Figure 2D).
(§2) Figure 2 Investigation of ligand-dependent and ligand-independent intracellular calcium mobilization. (A) Wild-type HEK293 cells and HEK293 cell clones overexpressing either GPR83 or the deletion variant GPR83del were incubated with either buffer or the specified ligand (10 µM PEN or co mix = 100 µM carbachol, 100 µM ATP, 40 µM dimaprit, or 50 µM ionomycin). (B) Calcium indicator fluorescence intensity traces over 60 s of various U2OS cell clones overexpressing untagged or HA-tagged GPR83 or the deletion variant GPR83del before and after the addition of buffer or ligand (co mix as in (A) or 50 µM ionomycin or 10 µM PEN). […]
(§3) Cells were seeded at 50,000 cells/well in a poly-D-lysine coated 96-well black well/clear bottom plate (BD Falcon, Franklin Lakes, NJ, USA) and cultured overnight. […] Fluorescence was recorded with the fluorescence imaging plate reader CellLux (Perkin Elmer, Waltham, MA, USA) simultaneously in all wells at an excitation wavelength of 488 nm and emission wavelength of 510 nm in 1.5 s intervals over a period of 4 min. Fluorescence data were generated in duplicate, and experiments were repeated at least two times.
Background: A change in cytosolic calcium serves as a functional read-out for many receptors and channels.

In experiment [2] the test system is GPR83 and deletion variant GPR83del (HEK293 clones; wild-type HEK293 as comparison). Kind of experiment: Intracellular calcium mobilization, HEK293 cells. Particulars: 10 µM PEN; co mix = 100 µM carbachol, 100 µM ATP, 40 µM dimaprit; 50 µM ionomycin; HEK293 wild-type, GPR83 or GPR83del clones; Fluo4-AM fluorescence, compared with buffer; duplicate, repeated at least two times. It is filed as cell-based, human. The method, then:
as §1, §2, §3

For `Nc1ncnc2c1ncn2[C@@H]1O[C@H](COP(=O)(O)OP(=O)(O)OP(=O)(O)O)[C@@H](O)[C@H]1O` [ATP], the calcium signal entry in experiment [1] is given as “strongly enhanced the calcium signal”. With `C[C@H](CCC(=O)O)C[C@H](C)C[C@H](C)C(=O)/C=C(\O)[C@H](C)C[C@H](C)C/C=C/[C@@H](C)[C@@H](O)[C@@H](C)[C@@H](O)C[C@@H]1CC[C@@](C)([C@H]2CC[C@@](C)([C@@H](C)O)O2)O1` [ionomycin, reference compound], the calcium signal result in experiment [2] is “clear calcium signal above buffer background”. In the case of `C[N+](C)(C)CCOC(N)=O` [carbachol], in experiment [1], the calcium signal result is “strongly enhanced the calcium signal”.

The values above are taken from PMC10606834, “Is the Neuropeptide PEN a Ligand of GPR83?” (International Journal of Molecular Sciences, 2023).
